The values below come from BindingDB's records for patent US20230339915 (Vertex Pharmaceuticals, 2023).

pIC50: −log10 of the molar value. Some results are limits rather than exact numbers.

The target of this assay is T1, Alpha-1-antitrypsin [E366K] (Homo sapiens, UniProt P01009, E366K).
T1 construct: gene SERPINA1
In words: Biochemical Assay (Z-AAT Elastase Activity Assay). On the procedure:
Assay Protocol: Pre-Incubation of Z-AAT with Compounds1. 7.5 μL of Z-AAT (20 nM) was incubated with compounds 1-227 in a GCA plate for 1 hour at room temperature. Addition of hNE1. 7.5 ul of HNE solution (3 nM in PBS+0.01% BRIJ35) added into GCA plate2. Incubate plate for 30 minutes to allow Z-AAT/HNE suicide complex formation. Addition of Substrate and Read Plate on PE Envision1. 7.5 μL of substrate (300 μM solution of elastase substrate (ES V) in PBS+0.01% BRIJ35) dispensed per well into GCA plate2. Immediately read on Envision.

The pIC50 is the negative decadic logarithm of the IC50, by convention in mol/L.

T1 sequence (P01009 25-418 E366K limits assumed): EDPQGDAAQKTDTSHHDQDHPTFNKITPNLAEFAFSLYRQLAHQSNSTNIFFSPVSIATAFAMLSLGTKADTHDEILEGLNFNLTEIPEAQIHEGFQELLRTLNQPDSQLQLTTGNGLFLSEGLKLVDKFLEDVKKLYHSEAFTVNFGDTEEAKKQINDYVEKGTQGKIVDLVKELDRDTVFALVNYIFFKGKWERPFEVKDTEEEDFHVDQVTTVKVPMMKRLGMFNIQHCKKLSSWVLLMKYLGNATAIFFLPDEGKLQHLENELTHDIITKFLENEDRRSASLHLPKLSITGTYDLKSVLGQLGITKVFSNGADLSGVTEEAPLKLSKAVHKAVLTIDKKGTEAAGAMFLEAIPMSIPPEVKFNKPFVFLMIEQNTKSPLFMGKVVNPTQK

`Cc1cc(-n2c(C(C)C)c(-c3ccc(C(=O)O)cc3)c3cc(O)ccc32)ccc1F` [US20230339915, Compound 167]: the pIC50 is > 5.70.

For the compound `Cc1cc(-n2c(C(C)C)c(-c3ccc(C(=O)O)cc3C)c3cc(O)ccc32)ccc1F` [US20230339915, Compound 170], the pIC50 was > 5.70.

On to `Cc1cc(-n2c(C(C)C)c([C@H]3C[C@@H]3C(=O)O)c3cc(O)c(F)cc32)ccc1F` [US20230339915, Compound 129], for which the pIC50 is < 5.30.

As to `Cc1cc(-n2c(C(C)C)c(C3CC3(C)C(=O)O)c3cc(O)ccc32)ccc1F` (centres undefined) [US20230339915, Compound 130], the negative-log IC50 (pIC50) is < 5.30.
